The target in this test is T1, human CRF2α receptor (Homo sapiens, UniProt Q13324).
T1 construct: expressed in transfected cells; host or cells: TeloHEAC
T1 sequence (Q13324 1-411): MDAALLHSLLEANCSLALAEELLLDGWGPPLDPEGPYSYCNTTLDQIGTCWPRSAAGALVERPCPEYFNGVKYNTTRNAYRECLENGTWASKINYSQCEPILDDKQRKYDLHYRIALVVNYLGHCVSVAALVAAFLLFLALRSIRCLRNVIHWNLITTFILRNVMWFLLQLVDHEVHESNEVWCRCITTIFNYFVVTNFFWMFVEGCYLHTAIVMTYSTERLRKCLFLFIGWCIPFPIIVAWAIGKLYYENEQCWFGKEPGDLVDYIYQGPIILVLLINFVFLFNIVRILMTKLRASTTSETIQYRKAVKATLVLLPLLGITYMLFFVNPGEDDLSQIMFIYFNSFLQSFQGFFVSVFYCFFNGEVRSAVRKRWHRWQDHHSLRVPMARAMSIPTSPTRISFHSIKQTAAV
Briefly: cAMP agonism at human CRF2 α receptor in TeloHEAC cells (Example 7). It counts as cell-based. The settings on record: cAMP HTRF, TeloHEAC cells stably expressing human CRF2 α. Summed up:
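Percent activation was referenced to 1000 nM UCN2 (100%), and EC50 values taken as concentrations giving half of maximal response. The read-out was a homogeneous time-resolved fluorescence cAMP kit, fluorescence ratio 665/620 nm. Thawed cells (2000/well) saw compound for 30 min at RT in buffer with 2 mM IBMX and 0%/0.1% HSA.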

[1] abbreviates: 0% HSA, read-out: EC50 [nM], 0% HSA.
The mark [2] stands for this setting: 0.1% HSA, read-out: EC50 [nM], 0.1% HSA.

Read-outs that look alike come from different tables or passages of the source. Starred links: 1 amine or outer side, 2 acyl side, 3 side chain; linkers in the order of their positions; H or OH if unused. Non-standard residues stand in square brackets, D forms with d. Residues, ends and D or L forms follow the SMILES beside them. Groups on a side chain read outwards from the residue. *: point of attachment. C18 diacid = O=C(O)CCCCCCCCCCCCCCCCC(=O)*; γGlu = O=C(O)[C@H](CCC(=O)[*:2])N[*:1]; AEEA = NCCOCCOCC(=O)O; Aib = CC(C)(N)C(=O)O

For the compound `CC[C@H](C)[C@H](N)C(=O)N[C@H](C(=O)N[C@@H](CC(C)C)C(=O)N[C@@H](CO)C(=O)N[C@@H](CC(C)C)C(=O)N[C@@H](CC(=O)O)C(=O)N[C@H](C(=O)N1CCC[C@H]1C(=O)N[C@H](C(=O)N[C@@H](CCCCN)C(=O)N[C@@H](CC(C)C)C(=O)N[C@@H](CCCCNC(=O)COCCOCCNC(=O)COCCOCCNC(=O)CC[C@H](NC(=O)CCCCCCCCCCCCCCCCC(=O)O)C(=O)O)C(=O)N[C@@H](CCC(N)=O)C(=O)N[C@H](C(=O)N[C@@H](CC(C)C)C(=O)N[C@@H](CC(C)C)C(=O)N[C@@H](CCCCN)C(=O)N[C@@H](CCC(N)=O)C(=O)N[C@@H](CCC(=O)O)C(=O)N[C@@H](CCCNC(=N)N)C(=O)N[C@@H](CCC(N)=O)C(=O)N[C@@H](CCCCN)C(=O)NC(C)(C)C(=O)N[C@@H](CCC(N)=O)C(=O)N[C@@H](CCCNC(=N)N)C(=O)N[C@@H](CCC(=O)O)C(=O)N[C@@H](CCC(N)=O)C(=O)N[C@@H](C)C(=O)N[C@@H](CCC(=O)O)C(=O)N[C@H](C(=O)N[C@@H](CC(N)=O)C(=O)N[C@@H](CCCCN)C(=O)N[C@@H](CCC(N)=O)C(=O)N[C@H](C(=O)N[C@@H](CC(C)C)C(=O)N[C@@H](CCC(=O)O)C(=O)N[C@@H](CCCNC(=N)N)C(=O)N[C@H](C(N)=O)C(C)C)[C@@H](C)CC)[C@@H](C)O)[C@@H](C)CC)[C@@H](C)CC)C(C)C)C(C)C` [compound 107] (H-IVLSLDVPIKLK([AEEA-AEEA-γGlu-C18 diacid])QILLKQERQK[Aib]QREQAETNKQILERV-NH2), the EC50 by setting is: under setting [1], 0.81 nM; under setting [2], 16.1 nM.

Take `CC[C@H](C)[C@H](N)C(=O)N[C@H](C(=O)N[C@@H](CC(C)C)C(=O)N[C@@H](CO)C(=O)N[C@@H](CC(C)C)C(=O)N[C@@H](CC(=O)O)C(=O)N[C@H](C(=O)N1CCC[C@H]1C(=O)N[C@H](C(=O)N[C@@H](CCCCN)C(=O)N[C@@H](CC(C)C)C(=O)N[C@@H](CCCCNC(=O)COCCOCCNC(=O)COCCOCCNC(=O)CC[C@H](NC(=O)CCCCCCCCCCCCCCCCC(=O)O)C(=O)O)C(=O)N[C@@H](CCC(N)=O)C(=O)N[C@H](C(=O)N[C@@H](CC(C)C)C(=O)N[C@@H](CC(C)C)C(=O)N[C@@H](CCCCN)C(=O)N[C@@H](CCC(N)=O)C(=O)N[C@@H](CCC(=O)O)C(=O)N[C@@H](CCCNC(=N)N)C(=O)N[C@@H](CCC(N)=O)C(=O)N[C@@H](CCCCN)C(=O)NC(C)(C)C(=O)N[C@@H](CCC(N)=O)C(=O)N[C@@H](CCCNC(=N)N)C(=O)N[C@@H](CCC(=O)O)C(=O)N[C@@H](CCC(N)=O)C(=O)N[C@@H](C)C(=O)N[C@@H](CCC(=O)O)C(=O)N[C@@H](CCCCN)C(=O)N[C@@H](CC(N)=O)C(=O)N[C@@H](CCCCN)C(=O)N[C@@H](CCC(N)=O)C(=O)N[C@H](C(=O)N[C@@H](CC(C)C)C(=O)N[C@@H](CCC(=O)O)C(=O)N[C@@H](CCCNC(=N)N)C(=O)N[C@H](C(N)=O)C(C)C)[C@@H](C)CC)[C@@H](C)CC)[C@@H](C)CC)C(C)C)C(C)C` [compound 115] (H-IVLSLDVPIKLK([AEEA-AEEA-γGlu-C18 diacid])QILLKQERQK[Aib]QREQAEKNKQILERV-NH2; N-terminus assumed): the 50% effective concentration (EC50) under setting [1] was determined as 2.77 nM. On to `CC[C@H](C)[C@H](N)C(=O)N[C@H](C(=O)N[C@@H](CC(C)C)C(=O)N[C@@H](CO)C(=O)N[C@@H](CC(C)C)C(=O)N[C@@H](CC(=O)O)C(=O)N[C@H](C(=O)N1CCC[C@H]1C(=O)N[C@H](C(=O)N[C@@H](CCCCN)C(=O)N[C@@H](CC(C)C)C(=O)N[C@@H](CCCCNC(=O)COCCOCCNC(=O)COCCOCCNC(=O)CC[C@H](NC(=O)CCCCCCCCCCCCCCCCC(=O)O)C(=O)O)C(=O)N[C@@H](CCC(N)=O)C(=O)N[C@H](C(=O)N[C@@H](CC(C)C)C(=O)N[C@@H](CC(C)C)C(=O)N[C@@H](CCCCN)C(=O)N[C@@H](CCC(N)=O)C(=O)N[C@@H](CCC(=O)O)C(=O)N[C@@H](CCCNC(=N)N)C(=O)N[C@@H](CCC(N)=O)C(=O)N[C@@H](CCCCN)C(=O)N[C@@H](CCCCN)C(=O)N[C@@H](CCC(N)=O)C(=O)N[C@@H](CCCNC(=N)N)C(=O)N[C@@H](CCC(=O)O)C(=O)N[C@@H](CCC(N)=O)C(=O)N[C@@H](C)C(=O)N[C@@H](CCC(=O)O)C(=O)N[C@@H](CCCCN)C(=O)N[C@@H](CC(N)=O)C(=O)N[C@@H](CCCCN)C(=O)N[C@@H](CCC(N)=O)C(=O)N[C@H](C(=O)N[C@@H](CC(C)C)C(=O)N[C@@H](CCC(=O)O)C(=O)N[C@@H](CCC(N)=O)C(=O)N[C@H](C(N)=O)C(C)C)[C@@H](C)CC)[C@@H](C)CC)[C@@H](C)CC)C(C)C)C(C)C` [compound 120] (H-IVLSLDVPIKLK([AEEA-AEEA-γGlu-C18 diacid])QILLKQERQKKQREQAEKNKQILEQV-NH2), for which the EC50 is, setting by setting: under setting [1], 1.27 nM; under setting [2], 61.1 nM. The matching figures for `CC[C@H](C)[C@H](N)C(=O)N[C@H](C(=O)N[C@@H](CC(C)C)C(=O)N[C@@H](CO)C(=O)N[C@@H](CC(C)C)C(=O)N[C@@H](CC(=O)O)C(=O)N[C@@H](C(=O)N1CCC[C@H]1C(=O)N[C@H](C(=O)N[C@@H](CCCCN)C(=O)N[C@@H](CC(C)C)C(=O)N[C@@H](CCCCNC(=O)COCCOCCNC(=O)COCCOCCNC(=O)CC[C@H](NC(=O)CCCCCCCCCCCCCCCCC(=O)O)C(=O)O)C(=O)N[C@@H](CCC(N)=O)C(=O)N[C@H](C(=O)N[C@@H](CC(C)C)C(=O)N[C@@H](CC(C)C)C(=O)N[C@@H](CCC(=O)O)C(=O)N[C@@H](CCC(N)=O)C(=O)N[C@@H](C)C(=O)N[C@@H](CCCCN)C(=O)N[C@@H](CCC(N)=O)C(=O)N[C@@H](CCCCN)C(=O)NC(C)(C)C(=O)N[C@@H](CCC(N)=O)C(=O)N[C@@H](CCCNC(=N)N)C(=O)N[C@@H](CCC(=O)O)C(=O)N[C@@H](CCC(N)=O)C(=O)N[C@@H](C)C(=O)N[C@@H](CCC(=O)O)C(=O)N[C@@H](CCCCN)C(=O)N[C@@H](CC(N)=O)C(=O)N[C@@H](CCCCN)C(=O)N[C@@H](CCCNC(=N)N)C(=O)N[C@H](C(=O)N[C@@H](CC(C)C)C(=O)N[C@@H](CCC(=O)O)C(=O)N[C@@H](CCCNC(=N)N)C(=O)N[C@H](C(N)=O)C(C)C)[C@@H](C)CC)[C@@H](C)CC)[C@@H](C)CC)C(C)C)C(C)C` [compound 127] (H-IVLSLD[dV]PIKLK([AEEA-AEEA-γGlu-C18 diacid])QILLEQAKQK[Aib]QREQAEKNKRILERV-NH2; N-terminus assumed): 0.16 nM and 5.14 nM. On the same counts, the results for `CC[C@H](C)[C@H](N)C(=O)N[C@H](C(=O)N[C@@H](CC(C)C)C(=O)N[C@@H](CO)C(=O)N[C@@H](CC(C)C)C(=O)N[C@@H](CC(=O)O)C(=O)N[C@@H](C(=O)N1CCC[C@H]1C(=O)N[C@H](C(=O)N[C@@H](CCCCN)C(=O)N[C@@H](CC(C)C)C(=O)N[C@@H](CCCCNC(=O)COCCOCCNC(=O)COCCOCCNC(=O)CC[C@H](NC(=O)CCCCCCCCCCCCCCCCC(=O)O)C(=O)O)C(=O)N[C@@H](CCC(N)=O)C(=O)N[C@H](C(=O)N[C@@H](CC(C)C)C(=O)N[C@@H](CC(C)C)C(=O)N[C@@H](CCCCN)C(=O)N[C@@H](CCC(N)=O)C(=O)N[C@@H](C)C(=O)N[C@@H](CCCNC(=N)N)C(=O)N[C@@H](CCC(N)=O)C(=O)N[C@@H](CCCCN)C(=O)NC(C)(C)C(=O)N[C@@H](CCC(N)=O)C(=O)N[C@@H](CCCNC(=N)N)C(=O)N[C@@H](CCC(=O)O)C(=O)N[C@@H](CCC(N)=O)C(=O)N[C@@H](C)C(=O)N[C@@H](CCC(=O)O)C(=O)N[C@@H](CCCCN)C(=O)N[C@@H](CC(N)=O)C(=O)N[C@@H](CCCCN)C(=O)N[C@@H](CCCNC(=N)N)C(=O)N[C@H](C(=O)N[C@@H](CC(C)C)C(=O)N[C@@H](CCC(=O)O)C(=O)N[C@@H](CCCNC(=N)N)C(=O)N[C@H](C(N)=O)C(C)C)[C@@H](C)CC)[C@@H](C)CC)[C@@H](C)CC)C(C)C)C(C)C` [compound 128] (H-IVLSLD[dV]PIKLK([AEEA-AEEA-γGlu-C18 diacid])QILLKQARQK[Aib]QREQAEKNKRILERV-NH2; N-terminus assumed) are 0.64 nM and 20.1 nM. On the same counts, the results for `CC[C@H](C)[C@H](N)C(=O)N[C@H](C(=O)N[C@@H](CC(C)C)C(=O)N[C@@H](CO)C(=O)N[C@@H](CC(C)C)C(=O)N[C@@H](CC(=O)O)C(=O)N[C@@H](C(=O)N1CCC[C@H]1C(=O)N[C@H](C(=O)N[C@@H](CCCCN)C(=O)N[C@@H](CC(C)C)C(=O)N[C@@H](CCCCNC(=O)COCCOCCNC(=O)COCCOCCNC(=O)CC[C@H](NC(=O)CCCCCCCCCCCCCCCCC(=O)O)C(=O)O)C(=O)N[C@@H](CCC(N)=O)C(=O)N[C@H](C(=O)N[C@@H](CC(C)C)C(=O)N[C@@H](CC(C)C)C(=O)N[C@@H](CCC(=O)O)C(=O)N[C@@H](CCC(N)=O)C(=O)N[C@@H](CCC(=O)O)C(=O)N[C@@H](CCCNC(=N)N)C(=O)N[C@@H](CCC(N)=O)C(=O)N[C@@H](CCCCN)C(=O)NC(C)(C)C(=O)N[C@@H](CCC(N)=O)C(=O)N[C@@H](CCCNC(=N)N)C(=O)N[C@@H](CCC(=O)O)C(=O)N[C@@H](CCC(N)=O)C(=O)N[C@@H](C)C(=O)N[C@@H](CCC(=O)O)C(=O)N[C@@H](CCCCN)C(=O)N[C@@H](CC(N)=O)C(=O)N[C@@H](CCCCN)C(=O)N[C@@H](CCC(N)=O)C(=O)N[C@H](C(=O)N[C@@H](CC(C)C)C(=O)N[C@@H](C)C(=O)N[C@@H](CCC(N)=O)C(=O)N[C@H](C(N)=O)C(C)C)[C@@H](C)CC)[C@@H](C)CC)[C@@H](C)CC)C(C)C)C(C)C` [compound 129] (H-IVLSLD[dV]PIKLK([AEEA-AEEA-γGlu-C18 diacid])QILLEQERQK[Aib]QREQAEKNKQILAQV-NH2) are 0.15 nM and 3.02 nM.

Source of the values: patent US12679878B2, “CRF2 receptor agonists and their use in therapy” (SANOFI, priority 2020, dated 2026).
